Measurements as given in patent US20240286994A1, “NOVEL SQUARAMIDE DERIVATIVE AND USE THEREOF” (PUSAN NATIONAL UNIVERSITY INDUSTRY-UNIVERSITY COOPERATION …, priority 2021, published 2024).

Tested on: eIF2α phosphorylation
Test: Phospho-eIF2α (Ser51) sandwich ELISA in K562 cells
Assay type: cell-based
Settings: serum-free RPMI, 10 μM compound, 6 hours; for Multiple changes in eIF2α phosphorylation at 10 μM (absorbance standardized to control = 1): DMSO-treated control set to 1; for fold induction at 10 µM: Homo sapiens, DMSO-treated control set to 1, read-out: Multiple changes in eIF2α phosphorylation at 10 μM (absorbance standardized to control = 1)
Procedure: Pathscan Phospho-eIF2a (Ser51) Sandwich ELISA Kit #7286 from Cell signaling was used. The K562 cell line was cultured in serum-free RPMI medium at 37° C. in the presence of 5% CO2. Cells were treated with test compounds at a concentration of 10 μM. Six hours after compound treatment, the cells were lysed with a lysis buffer included in the kit to obtain 50 μg of protein by quantification. Afterwards, ELISA assay was performed according to the manufacturer's protocol to obtain absorbance. The absorbance for each obtained compound was standardized to a value of which the control (DMSO-treated) is set to 1.

In the case of `CC(C)(C)c1ccccc1Nc1c(N[C@H]2CC[C@H](Oc3ccc(S(C)(=O)=O)cc3)CC2)c(=O)c1=O` [Compound 77, 3-((2-(tert-Butyl)phenyl)amino)-4-(((1,4-trans)-4-(4-(methylsulfonyl)phenoxy)cyclohexyl)amino)cyclobut-3-ene-1,2-dione], the “Multiple changes in eIF2α phosphorylation at 10 μM (absorbance standardized to control = 1)” value is reported as 1.70.

With `CC(C)(C)c1cccc(Nc2c(N[C@H]3CC[C@H](Oc4ccc(C(F)(F)F)cc4)CC3)c(=O)c2=O)c1` [Compound 28, 3-((3-(tert-Butyl)phenyl)amino)-4-(((1,4-trans)-4-(4-(trifluoromethyl)phenoxy)cyclohexyl)amino)cyclobut-3-ene-1,2-dione] the “Multiple changes in eIF2α phosphorylation at 10 μM (absorbance standardized to control = 1)” value was 1.92.

Compound `CS(=O)(=O)c1ccc(O[C@H]2CC[C@H](Nc3c(Nc4ccccc4F)c(=O)c3=O)CC2)cc1` [Compound 65, 3-((2-Fluorophenyl)amino)-4-(((1,4-trans)-4-(4-(methylsulfonyl)phenoxy)cyclohexyl)amino)cyclobut-3-ene-1,2-dione] has a fold induction at 10 µM of 1.07.

`COc1cccc(Nc2c(N[C@H]3CC[C@H](Oc4ccc(C(F)(F)F)cc4)CC3)c(=O)c2=O)c1` [Compound 33, 3-((3-Methoxyphenyl)amino)-4-(((1,4-trans)-4-(4-(trifluoromethyl)phenoxy)cyclohexyl)amino)cyclobut-3-ene-1,2-dione] showed a fold induction at 10 µM of 0.83.
